Data taken from patent US20070154573A1 (priority 2005, published 2007).
≈ marks a conversion by molar mass, not a printed value. Read-outs that look alike come from different tables or passages of the source. Marks after values point to notes of the source that are not given here.

Key:
T24 (bladder) [1] = conditions: for IC50: Homo sapiens, read-out: IC50 of standard agent alone
PANC1 (pancreas) [2] = conditions: for IC50: Homo sapiens, PANC-1, read-out: IC50 of standard agent alone
MT-4 cells = assay: Viability of mock-infected MT-4 cells (MTT); type: cell-based; conditions: viability of mock-infected MT-4 cells reduced by 50%
Protocol: Compound concentrations (μg/ml) required to reduce the viability of mock-infected MT-4 cells by 50% are determined by the MTT-method.

HIV-1 = conditions: 50% protection of MT-4 cells, MTT-method
Description: 1-Mock-infected MT-4 cell lines are used to support the growth of the HIV-1 virus.
Compound concentrations (μg/ml) required to achieve 50% protection of MT-4 cells from the HIV-1 induced cytopathogenecity, as determined by the MTT-method.

T24 (bladder) [3] = tested on: T24 (bladder)
PANC1 (pancreas) [4] = tested on: PANC1 (pancreas)
[5] = target: reverse-transcriptase enzyme; assay: Efficacy against reverse-transcriptase (RT); type: biochemical; conditions: in vitro
Protocol: 5.a Efficacy Against Reverse-Transcriptase (RT) Using Phosphonoformate as Inhibitors of RT • The inhibitory effect of the cold extract according to the present invention against the reverse-transcriptase enzyme is also studied using three different concentrations (0.1, 1 and 10 μg/ml) in vitro and compared with the phosphonoformate (PFA) as inhibitors of RT.

Row | Compound | IC50 (H460 (lung)) [µg/mL] | IC50 (HCT116 (colon)) [µg/mL] | IC50 (T24 (bladder) [3]) [µg/mL] | also measured
1 | O=c1[nH]cc(F)c(=O)[nH]1 [5-FU, 5-fluoro-uracil] | 0.157 (≈ 1.21 µM) |  |  | IC50 (T24 (bladder) [1]): 0.429 µg/mL (≈ 3.3 µM); IC50 (PANC1 (pancreas) [2]): 0.247 µg/mL (≈ 1.9 µM)
2 | COc1cccc2c1C(=O)c1c(O)c3c(c(O)c1C2=O)C[C@@](O)(C(=O)CO)C[C@@H]3O[C@H]1C[C@H](N)[C@H](O)[C@H](C)O1 [ADR, adriamycin] | 0.004 (≈ 0.00736 µM) | 0.006 (≈ 0.011 µM) |  | IC50 (T24 (bladder) [1]): 0.058 µg/mL (≈ 0.107 µM); IC50 (PANC1 (pancreas) [2]): 0.022 µg/mL (≈ 0.0405 µM)
3 | Cc1cn([C@H]2C[C@H](N=[N+]=[N-])[C@@H](CO)O2)c(=O)[nH]c1=O [AZT] |  |  |  | IC50 (MT-4) (MT-4 cells): >10 µg/mL; EC50 (HIV-1) (HIV-1): 0.01 µg/mL (≈ 0.0374 µM)
4 | Nc1nc2[nH]cc(CCc3ccc(C(=O)N[C@@H](CCC(=O)O)C(=O)O)cc3)c2c(=O)[nH]1 [Alimta, alimta] | 0.018 (≈ 0.0421 µM) |  |  | standard agent alone, based on IC70 values (PANC1 (pancreas) [2]; PANC1, no Breastin, Exp. GF683, IC70): <100^2) μg/ml
5 | O=P1(N(CCCl)CCCl)NCCCO1 (stereo not shown) [CYACT, cyclophosphamide] |  |  | 0.32 (≈ 1.23 µM) | IC50 (PANC1 (pancreas) [4]): 0.193 µg/mL (≈ 0.739 µM)
6 | N.N.[Cl][Pt][Cl] [Cis-Platin, cisplatin] |  | > 30 |  | IC50 of standard agent alone (T24 (bladder) [1]; T24, no Breastin, Exp. GF649): >30 µg/mL; IC50 of standard agent alone (PANC1 (pancreas) [2]; PANC1, no Breastin, Exp. GF654): 5.48 µg/mL
7 | CO[C@@]12[C@H](COC(N)=O)C3=C(C(=O)C(C)=C(N)C3=O)N1C[C@@H]1N[C@@H]12 [Mitomycin, mitomycin-C] | 0.009 (≈ 0.0269 µM) |  | 0.056 (≈ 0.167 µM) | 
8 | CCC1=C[C@@H]2CN(C1)Cc1c([nH]c3ccccc13)[C@@](C(=O)OC)(c1cc3c(cc1OC)N(C)[C@H]1[C@@](O)(C(=O)OC)[C@H](OC(C)=O)[C@]4(CC)C=CCN5CC[C@]31[C@@H]54)C2 [Navelbine, navelbine] | 0.057 (≈ 0.0732 µM) | 0.06 (≈ 0.077 µM) | 0.144 (≈ 0.185 µM) | IC50 (PANC1 (pancreas) [4]): 0.119 µg/mL (≈ 0.153 µM)
9 | O=C(O)P(=O)(O)O [PFA, phosphonoformate] |  |  |  | IC50, reverse-transcriptase enzyme [5]: 6 to 20 µg/mL
10 | CC(=O)O[C@H]1C(=O)[C@@]2(C)[C@H]([C@H](OC(=O)c3ccccc3)[C@]3(O)C[C@H](OC(=O)[C@H](O)[C@@H](NC(=O)c4ccccc4)c4ccccc4)C(C)=C1C3(C)C)[C@]1(OC(C)=O)CO[C@@H]1C[C@@H]2O [TAXOL, taxol] | 0.0019 (≈ 0.00223 µM) |  |  | IC50 (T24 (bladder) [1]): 0.01 µg/mL (≈ 0.0117 µM); IC50 (PANC1 (pancreas) [2]): 0.0019 µg/mL (≈ 0.00223 µM)
11 | CC(=O)O[C@@]12CO[C@@H]1C[C@H](O)[C@@]1(C)C(=O)[C@H](O)C3=C(C)[C@@H](OC(=O)[C@H](O)[C@@H](NC(=O)OC(C)(C)C)c4ccccc4)C[C@@](O)([C@@H](OC(=O)c4ccccc4)[C@H]21)C3(C)C [Taxotere, taxotere] | 0.059 (≈ 0.073 µM) |  | 0.163 (≈ 0.202 µM) | 
12 | CC[C@@]1(O)C(=O)OCc2c1cc1n(c2=O)Cc2cc3c(CN(C)C)c(O)ccc3nc2-1 [Topotecan, topotecan] | 0.0079 (≈ 0.0187 µM) | 0.0066 (≈ 0.0157 µM) | 0.0032 (≈ 0.00759 µM) | 
